In brackets after ≈: the same amount, converted by molar mass.
How the values were obtained:
Aspergillus niger = experiment: Antifungal activity against Aspergillus niger DSM 1988 after 24 to 48 hr by broth microdilution method; format: functional
[1] = Cytotoxicity against Homo sapiens (human) MT4 cells containing integrated HTLV-1 genome after 96 hr by MTT assay; format: cell-based
Pseudomonas aeruginosa = experiment: Antibacterial activity against Pseudomonas aeruginosa DSM 1117 after 16 to 20 hr by broth microdilution method; format: functional
Staphylococcus aureus = experiment: Antibacterial activity against Staphylococcus aureus DSM 2569 after 16 to 20 hr by broth microdilution method; format: functional
Candida albicans = experiment: Antifungal activity against Candida albicans DSM 1386 after 24 to 48 hr by broth microdilution method; format: functional
Vaccinia virus = experiment: Antiviral activity against Vaccinia virus infected African green monkey Vero76 cells assessed as reduction of virus-induced plaque reduction after 3 days by MTT assay; format: functional, organism-based; settings: Orthopoxvirus vaccinia, Vero 76, 72 h
[2] = Cytotoxicity against Cricetinae BHK21 (hamster normal kidney fibroblast) cells after 48 to 120 hr by MTT assay; format: cell-based, Mesocricetus auratus, BHK-21; settings: BHK21 cells (normal kidney fibroblasts)
[3] = Cytotoxicity against Chlorocebus aethiops (African green monkey) Vero76 cells after 48 to 120 hr by MTT assay; format: cell-based, Vero 76; settings: chlorocebus sabaeus
[4] = Selectivity index, ratio of CC50 for green monkey Vero76 cells to EC50 for HSV1; set-up: species or system Vero 76
[5] = system: Human immunodeficiency virus 1; experiment: Antiviral activity against Human immunodeficiency virus 1 infected human MT4 cells assessed as inhibition of virus-induced cytopathogenicity after 4 days by MTT assay; format: functional, organism-based; settings: Human immunodeficiency virus 1, MT4, 96 h
Poliovirus 1 = experiment: Antiviral activity against Human poliovirus 1 strain Sabin infected African green monkey Vero76 cells assessed as reduction of virus-induced plaque reduction after 2 days by MTT assay; format: functional, organism-based; settings: Enterovirus C, Vero 76, 48 h
[6] = system: Bovine viral diarrhea virus 1; experiment: Antiviral activity against Bovine viral diarrhea virus 1 infected MDBK cells assessed as inhibition of virus-induced cytopathogenicity after 3 to 4 days by MTT assay; format: functional, organism-based; settings: Bovine viral diarrhea virus isolates and strains
Yellow fever virus = experiment: Antiviral activity against Yellow fever virus infected BHK21 cells assessed as inhibition of virus-induced cytopathogenicity after 3 to 4 days by MTT assay; format: functional, organism-based; settings: BHK-21
[7] = Selectivity index, ratio of CC50 for green monkey Vero76 cells to EC50 for Yellow fever virus; format: toxicity, cell-based, Vero 76; settings: read-out: Ratio CC50/EC50
[8] = Cytotoxicity against Bos taurus MDBK cells after 48 to 120 hr by MTT assay; format: cell-based; settings: cattle
[9] = system: Mammalian orthoreovirus 1; experiment: Antiviral activity against Mammalian orthoreovirus 1 infected BHK21 cells assessed as inhibition of virus-induced cytopathogenicity after 3 to 4 days by MTT assay; format: functional, organism-based; settings: Mammalian orthoreovirus 1, BHK-21
Human alphaherpesvirus 1 = experiment: Antiviral activity against Human herpesvirus 1 infected African green monkey Vero76 cells assessed as reduction of virus-induced plaque reduction after 3 days by MTT assay; format: functional, organism-based; settings: Human alphaherpesvirus 1, Vero 76, 72 h
[10] = Selectivity index, ratio of CC50 for green monkey Vero76 cells to EC50 for Coxsackievirus B2; format: toxicity, cell-based, Vero 76; settings: read-out: Ratio CC50/EC50
Coxsackievirus B2 = experiment: Antiviral activity against Human coxsackievirus B2 infected African green monkey Vero76 cells assessed as reduction of virus-induced plaque reduction after 3 days by MTT assay; format: functional, organism-based; settings: Enterovirus B, Vero 76, 72 h
[11] = system: Vesicular stomatitis virus; experiment: Antiviral activity against Vesicular stomatitis virus infected african green monkey Vero76 cells assessed as reduction of virus-induced plaque reduction after 3 days by MTT assay; format: functional, organism-based; settings: Vero 76, 72 h

| Compound | MIC (Aspergillus niger) | CC50 at 96 h [1] | MIC (Pseudomonas aeruginosa) | MIC (Staphylococcus aureus) | MIC (Candida albicans) | EC50 (Vaccinia virus) | CC50 [2] | CC50 [3] | Ratio CC50/EC50 [4] | EC50 [5] | EC50 (Poliovirus 1) | EC50 [6] | EC50 (Yellow fever virus) | selectivity ratio [7] | CC50 [8] | EC50 [9] | EC50 (Human alphaherpesvirus 1) | selectivity ratio [10] | EC50 (Coxsackievirus B2) | EC50 [11] |
| --- | --- | --- | --- | --- | --- | --- | --- | --- | --- | --- | --- | --- | --- | --- | --- | --- | --- | --- | --- | --- |
| CCN(CC)CC(O)CN1C(=O)C2=C(SCCS2)C1=O (configuration not stated) | > 100 µM | > 100 µM | > 100 µM | > 100 µM | > 100 µM | – | – | – | – | – | – | – | – | – | – | – | – | – | – | – |
| COc1ccccc1N1CCN(CCCN2C(=O)C3=C(SCCS3)C2=O)CC1 | – | > 100 µM | – | – | – | – | – | – | – | – | – | – | – | – | – | – | – | – | – | – |
| O=C1NC(=O)C2=C1SCCS2 | > 100 µM | > 100 µM | > 100 µM | > 100 µM | > 100 µM | – | – | – | – | – | – | – | – | – | – | – | – | – | – | – |
| O=C1C2=C(SCCS2)C(=O)N1CCCCN1CCN(c2ccccc2O)CC1 | – | > 100 µM | – | – | – | – | – | – | – | – | – | – | – | – | – | – | – | – | – | – |
| O=C1C2=C(SCCS2)C(=O)N1CCCN1CCN(c2ccccc2O)CC1 | – | > 100 µM | – | – | – | – | – | – | – | – | – | – | – | – | – | – | – | – | – | – |
| Clc1ccc(COC(Cn2ccnc2)c2ccc(Cl)cc2Cl)c(Cl)c1 (configuration not stated) [MICONAZOLE] | 20 µM (≈ 8.32 µg/mL) | – | – | – | 0.8 µM (≈ 0.333 µg/mL) | – | – | – | – | – | – | – | – | – | – | – | – | – | – | – |
| O=C1C2=C(SCCS2)C(=O)N1CCCN1CCN(c2ccccn2)CC1 | > 100 µM | > 100 µM | > 100 µM | > 100 µM | > 100 µM | – | – | – | – | – | – | – | – | – | – | – | – | – | – | – |
| O=C(O)c1cn(C2CC2)c2cc(N3CCNCC3)c(F)cc2c1=O [CIPROFLOXACIN] | – | – | 0.8 µM (≈ 0.265 µg/mL) | 4 µM (≈ 1.33 µg/mL) | – | – | – | – | – | – | – | – | – | – | – | – | – | – | – | – |
| CC1CCN(CC(O)CN2C(=O)C3=C(SCCS3)C2=O)CC1 (configuration not stated) | > 100 µM | > 100 µM | > 100 µM | > 100 µM | > 100 µM | – | – | – | – | – | – | – | – | – | – | – | – | – | – | – |
| COc1c(C)c2c(c(O)c1C/C=C(\C)CCC(=O)O)C(=O)OC2 [MYCOPHENOLIC ACID] | – | – | – | – | – | 1.8 µM | – | – | – | – | – | – | – | – | – | – | – | – | – | – |
| O=C1C2=C(SCCS2)C(=O)N1CCCCN1CCN(c2ccccc2)CC1 | > 100 µM | > 100 µM | > 100 µM | > 100 µM | > 100 µM | > 100 µM | > 100 µM | > 100 µM | >5.26 | > 100 µM | > 100 µM | > 100 µM | 88 µM | > 1.14 | > 100 µM | > 100 µM | 19 µM | > 1.51 | 66 µM | > 100 µM |
| O=C1OC(=O)C2=C1SCCS2 | > 100 µM | – | > 100 µM | > 100 µM | > 100 µM | – | – | – | – | – | – | – | – | – | – | – | – | – | – | – |
| O=C1C2=C(SCCS2)C(=O)N1CC(O)CN1CCCCC1 (configuration not stated) | > 100 µM | > 100 µM | > 100 µM | > 100 µM | > 100 µM | – | – | – | – | – | – | – | – | – | – | – | – | – | – | – |
| O=C1C2=C(SCCS2)C(=O)N1CC(O)CN1CCN(c2ccccn2)CC1 (configuration not stated) | > 100 µM | > 100 µM | > 100 µM | > 100 µM | > 100 µM | – | – | – | – | – | – | – | – | – | – | – | – | – | – | – |
| CC(C)(C)NCC(O)CN1C(=O)C2=C(SCCS2)C1=O (configuration not stated) | > 100 µM | > 100 µM | > 100 µM | > 100 µM | > 100 µM | – | – | – | – | – | – | – | – | – | – | – | – | – | – | – |
| O=C1C2=C(SCCS2)C(=O)N1CC(O)CN1CCN(c2ccc(F)cc2)CC1 (configuration not stated) | > 100 µM | > 100 µM | > 100 µM | > 100 µM | > 100 µM | > 100 µM | > 100 µM | > 100 µM | – | > 100 µM | > 100 µM | > 100 µM | 80 µM | > 1.25 | > 100 µM | > 100 µM | > 100 µM | – | > 100 µM | > 100 µM |
| C#C[C@@]1(O)[C@H](O)[C@@H](CO)O[C@H]1n1ccc(N)nc1=O [2'-ETHYNYL-D-CYTIDINE] | – | – | – | – | – | – | – | – | – | – | 18 µM | – | – | – | – | – | – | – | 23 µM | – |
| CN(C)CC(O)CN1C(=O)C2=C(SCCS2)C1=O (configuration not stated) | > 100 µM | > 100 µM | > 100 µM | > 100 µM | > 100 µM | – | – | – | – | – | – | – | – | – | – | – | – | – | – | – |
| O=C1C2=C(SCCS2)C(=O)N1CCCCN1CCN(c2ccc(F)cc2)CC1 | > 100 µM | > 100 µM | > 100 µM | > 100 µM | > 100 µM | > 100 µM | > 100 µM | > 100 µM | – | > 100 µM | > 100 µM | > 100 µM | > 100 µM | – | > 100 µM | > 100 µM | > 100 µM | > 4.76 | 21 µM | > 100 µM |
| O=C1C2=C(SCCS2)C(=O)N1CCCCN1CCN(Cc2ccccc2)CC1 | > 100 µM | > 100 µM | > 100 µM | > 100 µM | > 100 µM | > 100 µM | > 100 µM | > 100 µM | >3.45 | > 100 µM | > 100 µM | > 100 µM | > 100 µM | – | > 100 µM | > 100 µM | 29 µM | – | > 100 µM | > 100 µM |
| O=C1C2=C(SCCS2)C(=O)N1CC(O)CN1CCN(c2ccccc2)CC1 (configuration not stated) | > 100 µM | > 100 µM | > 100 µM | > 100 µM | > 100 µM | – | – | – | – | – | – | – | – | – | – | – | – | – | – | – |
| COc1ccccc1N1CCN(CCCCN2C(=O)C3=C(SCCS3)C2=O)CC1 | – | > 100 µM | – | – | – | – | – | – | – | – | – | – | – | – | – | – | – | – | – | – |
| COc1ccccc1N1CCN(CC(O)CN2C(=O)C3=C(SCCS3)C2=O)CC1 (configuration not stated) | > 100 µM | > 100 µM | > 100 µM | > 100 µM | > 100 µM | > 100 µM | > 100 µM | > 100 µM | – | > 100 µM | > 100 µM | > 100 µM | 75 µM | > 1.33 | > 100 µM | > 100 µM | > 100 µM | – | > 100 µM | > 100 µM |
| O=C1C2=C(SCCS2)C(=O)N1CCCN1CCN(c2ccc(F)cc2)CC1 | > 100 µM | > 100 µM | > 100 µM | > 100 µM | > 100 µM | > 96 µM | > 100 µM | 96 µM | – | > 100 µM | > 96 µM | > 100 µM | 52 µM | > 1.92 | > 100 µM | > 100 µM | > 96 µM | > 4.8 | 20 µM | > 96 µM |
| O=C1C2=C(SCCS2)C(=O)N1CCCCN1CCN(c2ccccn2)CC1 | > 100 µM | > 100 µM | > 100 µM | > 100 µM | > 100 µM | > 100 µM | > 100 µM | > 100 µM | – | > 100 µM | > 100 µM | > 100 µM | > 100 µM | – | > 100 µM | > 100 µM | > 100 µM | > 3.12 | 32 µM | > 100 µM |
| O=C1C2=C(SCCS2)C(=O)N1CCCCN1CCN(c2ncccn2)CC1 | – | > 100 µM | – | – | – | – | – | – | – | – | – | – | – | – | – | – | – | – | – | – |
| Cc1cn([C@H]2C[C@H](N=[N+]=[N-])[C@@H](CO)O2)c(=O)[nH]c1=O [ZIDOVUDINE] | – | 50 µM | – | – | – | – | – | – | – | 0.01 µM | – | – | – | – | – | – | – | – | – | – |

From ChEMBL document CHEMBL3046758, “Biological evaluation of novel 1,4-dithiine derivatives as potential antimicrobial agents” (Med Chem Res, 2011)
